# Measured values taken from patent publication US20230000936A1, “A[…] ITCHING […] C[…]” (Demetrix, Inc., priority 2021, published 2023).
# Entries after “also recorded” stand apart in the source; their conditions may differ.
# Experiments:
# Type in all cases: cell-based
# CHRM2 [1] = molecular target: T1, CHRM2 (Homo sapiens, UniProt P08172); assay: IC50 antagonist activity screen, PathHunter β-Arrestin, CHRM2; settings: for maximum inhibition (antagonism) CHRM2: maximum of IC50 curve
# T1 sequence (P08172 1-466): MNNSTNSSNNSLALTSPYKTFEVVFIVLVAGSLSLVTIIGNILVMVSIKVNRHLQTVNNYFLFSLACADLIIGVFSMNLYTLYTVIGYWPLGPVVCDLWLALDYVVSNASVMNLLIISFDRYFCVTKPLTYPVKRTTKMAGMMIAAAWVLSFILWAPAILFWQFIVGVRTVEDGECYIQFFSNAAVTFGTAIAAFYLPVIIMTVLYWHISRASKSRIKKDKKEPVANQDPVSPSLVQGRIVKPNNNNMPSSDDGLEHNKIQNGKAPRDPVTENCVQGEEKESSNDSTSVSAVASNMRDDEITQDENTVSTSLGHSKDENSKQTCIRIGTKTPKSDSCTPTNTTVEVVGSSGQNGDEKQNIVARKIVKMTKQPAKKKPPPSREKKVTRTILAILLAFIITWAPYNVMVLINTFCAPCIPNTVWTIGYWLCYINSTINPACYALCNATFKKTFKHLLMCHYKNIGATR
# Procedure: (§1) In each of the antagonist assays, PathHunter® cell lines were removed from a freezer stock and seeded at a volume of 20 μL into white walled, 384-well microplates and incubated at 37° C. Each cell was pre-incubated with an antagonist followed by an agonist challenge at the EC80 concentration. Cells were then diluted to generate a 5× sample in assay buffer. 5 μL of the 5× sample was then added to cells and incubated at 37° C. for 30 minutes. Finally, 5 μL of 6×EC80 agonist in assay buffer were added to the cells and incubated at 37° C. for 90 minutes or 180 minutes. The assay signal was generated through addition of 12.5 μL or 15 μL (50% V/V) of a detection reagent cocktail followed by a one hour incubation time at room temperature. Microplates were read following signal generation with a PerkinElmer Envision™ (PerkinElmer Inc., Waltham, Mass.) for chemiluminescent signal detection. Reactivity was analyzed using the CBIS data analysis suite (ChemInnovation, CA) where RLU refers to the raw measured values. The percent inhibition was calculated using the formula: % Inhibition=100%*(1−mean RLU of test sample−mean RLU of control)/(mean RLU of EC80 control−mean RLU of vehicle control).
# (§2) IC50 curves were measured using the same GPCR assay, PathHunter® β-Arrestin from Eurofins DiscoverX Products (Fremont, Calif.), as the GPCR reactivity screen. As used herein, strong activity against a receptor is considered a maximum activity of about 42% or higher. Higher results for antagonism against CHRM2, EDGE, and MRGPRX2 are considered better. It is further considered better when a cannabinoid inhibits more than one of the receptors.
# EDG3 [2] = molecular target: T2, EDG3 (Homo sapiens, UniProt Q99500); assay: IC50 antagonist activity screen, PathHunter β-Arrestin, EDG3; settings: for maximum inhibition (antagonism) EDG3: maximum of IC50 curve
# Procedure: as §1, §2
# MRGPRX2 [3] = molecular target: T3, MRGPRX2 (Homo sapiens, UniProt Q96LB1); assay: IC50 antagonist activity screen, PathHunter β-Arrestin, MRGPRX2; settings: for maximum inhibition (antagonism) MRGPRX2: maximum of IC50 curve; for antagonism of MRGPRX2 (in words): IC50 data
# T3 sequence (Q96LB1 1-330): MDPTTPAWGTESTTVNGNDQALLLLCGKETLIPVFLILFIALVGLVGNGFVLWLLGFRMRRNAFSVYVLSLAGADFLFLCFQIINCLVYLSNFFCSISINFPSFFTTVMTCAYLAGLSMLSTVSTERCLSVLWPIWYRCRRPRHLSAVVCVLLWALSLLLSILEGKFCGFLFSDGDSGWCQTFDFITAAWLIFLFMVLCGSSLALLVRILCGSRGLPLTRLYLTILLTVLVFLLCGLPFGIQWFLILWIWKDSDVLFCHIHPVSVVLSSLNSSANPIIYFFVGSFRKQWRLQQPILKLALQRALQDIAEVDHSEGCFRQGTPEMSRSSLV
# Procedure: as §1, §2
# CHRM2 [4] = molecular target: T1, CHRM2; assay: GPCR reactivity screen, PathHunter β-Arrestin, agonist assay CHRM2; design: concentration or dose not given beside the values; settings: agonist mode; control acetylcholine
# Procedure: (§3) To evaluate the role specific cannabinoid compounds play in the neurological signaling pathway for itching, a GPCR reactivity assay was performed to determine the reactivity of 19 cannabinoid compounds to each of CHRM2, EDG3, and MRGPRX2. The evaluated cannabinoid compounds were: CBN, THCV, CBDVA, CBG, CBL, CBC, CBDV, CBDA, CBD, CBGA, (+)-CBD, CBG-C4, CBD-C1, CBD-C2, CBGV, CBGA-C4, CBGVA, CBCA, and CBLA. Acetylcholine was used as the control for CHRM2, sphingosine-1-phosphate was used as the control for EDG3; and cortistatin 14 was used as the control for MRGPRX2.
# (§4) A total of six assays were run. Specifically, agonist and antagonist assays were run for each of CHRM2, EDG3, and MRGPRX2. In each of the three agonist assays, PathHunter® cell lines were removed from a freezer stock and seeded at a volume of 20 μL into white walled, 384-well microplates and incubated at 37° C. Each cell was incubated with a sample to induce a response and then diluted to generate a 5× sample in assay buffer. 5 μL of the 5× sample was then added to cells and incubated at 37° C. for 90 or 180 minutes. The final assay concentration was 1%. The assay signal was generated through addition of 12.5 μL or 15 μL (50% V/V) of a detection reagent cocktail followed by a one hour incubation time at room temperature. Microplates were read following signal generation with a PerkinElmer Envision™ (PerkinElmer Inc., Waltham, Mass.) for chemiluminescent signal detection. Reactivity was analyzed using the CBIS data analysis suite (ChemInnovation, CA) where RLU refers to the raw measured values. The percent activity was then calculated using the formula: % Activity=100%*(mean RLU of test sample−mean RLU of control)/(mean max control ligand−mean RLU of vehicle control).
# (§5) As used herein, strong activity against a receptor is considered a percent activity of about 42% or higher. Higher results for antagonism against CHRM2, EDGE, and MRGPRX2 are considered better. It is further considered better when a cannabinoid inhibits more than one of the receptors.
# CHRM2 [5] = molecular target: T1, CHRM2; assay: GPCR reactivity screen, PathHunter β-Arrestin, antagonist assay CHRM2; settings: for CHRM2 (Antagonist) percent inhibition: antagonist mode, agonist challenge at EC80; for antagonist activity against CHRM2 (in words): GPCR reactivity screen
# Procedure: as §3, §1, §5
# EDG3 [6] = molecular target: T2, EDG3; assay: GPCR reactivity screen, PathHunter β-Arrestin, agonist assay EDG3; design: concentration or dose not given beside the values; settings: agonist mode; control sphingosine-1-phosphate
# Procedure: as §3, §4, §5
# EDG3 [7] = molecular target: T2, EDG3; assay: GPCR reactivity screen, PathHunter β-Arrestin, antagonist assay EDG3; settings: for EDG3 (Antagonist) percent inhibition: antagonist mode, agonist challenge at EC80
# Procedure: as §3, §1, §5
# MRGPRX2 [8] = molecular target: T3, MRGPRX2; assay: GPCR reactivity screen, PathHunter β-Arrestin, agonist assay MRGPRX2; settings: agonist mode; control cortistatin 14
# Procedure: as §3, §4, §5
# MRGPRX2 [9] = molecular target: T3, MRGPRX2; assay: GPCR reactivity screen, PathHunter β-Arrestin, antagonist assay MRGPRX2; settings: for antagonist activity against MRGPRX2 (in words): GPCR reactivity screen; for MRGPRX2 (Antagonist) percent inhibition: antagonist mode, agonist challenge at EC80
# Procedure: as §3, §1, §5
# T2 sequence (Q99500 whole entry): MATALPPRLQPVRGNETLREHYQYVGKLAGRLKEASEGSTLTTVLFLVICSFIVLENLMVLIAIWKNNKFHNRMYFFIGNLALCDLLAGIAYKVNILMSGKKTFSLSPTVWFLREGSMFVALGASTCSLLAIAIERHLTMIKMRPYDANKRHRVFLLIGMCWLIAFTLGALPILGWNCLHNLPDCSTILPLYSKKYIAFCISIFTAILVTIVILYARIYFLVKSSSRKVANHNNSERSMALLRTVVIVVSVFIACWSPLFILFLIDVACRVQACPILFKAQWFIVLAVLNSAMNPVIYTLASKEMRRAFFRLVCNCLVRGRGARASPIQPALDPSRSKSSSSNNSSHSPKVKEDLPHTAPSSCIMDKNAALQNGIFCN
SMILES,maximum inhibition (antagonism) CHRM2 (CHRM2 [1]),maximum inhibition (antagonism) EDG3 (EDG3 [2]),maximum inhibition (antagonism) MRGPRX2 (MRGPRX2 [3]),antagonism of CHRM2 (in words) (CHRM2 [1]; IC50 data),antagonism of EDG3 (in words) (EDG3 [2]; IC50 data),antagonism of MRGPRX2 (in words) (MRGPRX2 [3]),CHRM2 (Agonist) percent activity (CHRM2 [4]),CHRM2 (Antagonist) percent inhibition (CHRM2 [5]),EDG3 (Agonist) percent activity (EDG3 [6]),EDG3 (Antagonist) percent inhibition (EDG3 [7]),MRGPRX2 (Agonist) percent activity (MRGPRX2 [8]),antagonist activity against MRGPRX2 (in words) (MRGPRX2 [9]),MRGPRX2 (Antagonist) percent inhibition (MRGPRX2 [9]),antagonist activity against CHRM2 (in words) (CHRM2 [5]),antagonist activity against EDG3 (in words) (EDG3 [7]; GPCR reactivity screen)
"C=C(C)[C@@H]1CCC(C)=C[C@H]1c1c(O)cc(CCCCCC)cc1O [CBD-C6, cannabidol hexyl]",64%,11%,98%,–,–,–,–,–,–,–,–,–,–,–,–
"C=C(C)[C@@H]1CCC(C)=C[C@H]1c1c(O)cc(CCCCCCC)cc1O [CBD-C7, cannabidol heptyl]",90%,20%,98%,–,–,–,–,–,–,–,–,–,–,–,–
"C=C(C)[C@@H]1CCC(C)=C[C@H]1c1c(O)cc(CCCCCCCCC)cc1O [CBD-C9, cannabidol nonyl]",90%,0%,96%,remaining as an antagonist,did not act as an antagonist,remaining as an antagonist,–,–,–,–,–,–,–,–,–
"C=C(C)[C@@H]1CCC(C)=C[C@H]1c1c(O)cc(CCC)cc1O [CBDV, cannabidivarin]",27%,–,59%,–,–,–,3%,34%,1%,24%,3%,antagonist activity,71%,–,–
"CCCCCCc1cc(O)c(C/C=C(\C)CCC=C(C)C)c(O)c1 [CBG-C6, cannabigerol hexyl]",0%,15%,66%,–,–,–,–,–,–,–,–,–,–,–,–
"CCCCCCCc1cc(O)c(C/C=C(\C)CCC=C(C)C)c(O)c1 [CBG-C7, cannabigerol heptyl]",10%,32%,99%,–,–,–,–,–,–,–,–,–,–,–,–
"CCCCCCCCCc1cc(O)c(C/C=C(\C)CCC=C(C)C)c(O)c1 [CBG-C9, cannabigerol nonyl]",32%,55%,100%,–,–,–,–,–,–,–,–,–,–,–,–
"CCCc1cc(O)c(C/C=C(\C)CCC=C(C)C)c(O)c1 [CBGV, cannabigerivarin]",–,–,76%,–,–,–,0%,28%,2%,29%,1%,antagonist activity,95%,–,–
"CCCCCc1cc(O)c2c(c1)OC1(C)CCC3C1C2C3(C)C (stereo not drawn) [CBL, cannabicyclol]",47%,–,81%,–,–,–,13%,84%,−1%,9%,11%,antagonist activity,82%,antagonist activity,–
"CCCCCc1cc2c(c(O)c1C(=O)O)C1C3C(CCC3(C)O2)C1(C)C (stereo not drawn) [CBLA, cannabicyclolic acid]",–,–,44%,–,–,–,−4%,−19%,3%,19%,2%,–,36%,–,–
"CCCCCc1cc(O)c2c(c1)OC(C)(C)c1ccc(C)cc1-2 [CBN, cannabinol]",–,–,78%,–,–,–,0%,7%,5%,12%,22%,antagonist activity,73%,–,–
"CCCc1cc(O)c2c(c1)OC(C)(C)[C@@H]1CCC(C)=C[C@@H]21 [THCV, tetrahydrocannabivarin]",0%,–,21%,–,–,inhibition was not observed,18%,42%,1%,20%,18%,do not exhibit an antagonistic effect; also recorded: antagonist activity; also recorded: demonstrated antagonism,55%,do not exhibit an antagonistic effect,do not exhibit an antagonistic effect
